Tested on: HT-29 cells
Conditions: 5 mM; p<0.01 vs control
Procedure: FIG. 20. Mitochondrial calorimetry. HT-29 cells were treated with acetate (5 mM) or without (Control) and assessed for ATP production by the Seahorse assay in vitro.

## CC(=O)O [Acetate]
  ATP production: significantly increase
